Experimental data taken from patent publication US20110190235A1, “BORON-CONTAINING SMALL MOLECULES AS ANTIPROTOZOAL AGENTS” (Anacor Pharmaceuticals, Inc., priority 2009, published 2011).
Values after ≈ are worked out from the molar mass of the structure shown. Where two headings read alike, the source gives them in different places.

Tests used:
[1] = tested on: bloodstream-form trypanosome T. brucei brucei 427 strain; assay: Trypanosoma brucei brucei high-throughput in vitro drug sensitivity assay (resazurin); type: cell-based; conditions: Trypanosoma brucei, 72 h
[2] = Kinetic solubility by nephelometric (light scattering) method; type: physicochemical; conditions: PBS pH 7.4
Description: The kinetic solubilities of compounds were estimated using a nephelometric (light scattering) method. Briefly, compounds were serially diluted in DMSO, followed by dilution in PBS pH 7.4. After incubation, the amount of light scattered by a compound at each concentration was measured. […] At concentrations above the solubility limit, the compound precipitates and the precipitant in the well scatters the light, generating a signal. Higher levels of precipitant in a well scatter more light and produce a stronger signal.
A stock solution of compound (25 mM in DMSO) was prepared, and was serially diluted in DMSO in two-fold increments in a row of a 96 well plate to a lowest concentration of 24 μM. A duplicate plate was prepared by transfer of half of the volume of each well to a new plate. Each well containing DMSO solution of the test compound was then diluted further (1:100) with phosphate buffered saline (pH 7.4) to provide aqueous solutions of compound at the following final concentrations: 250, 125, 62.5, 31.3, 15.6, 7.8, 3.9, 2.0, 1.0, 0.5 and 0.2 μM. All liquid handling stages were performed on a Beckman Coulter Biomek NX Laboratory Automation Workstation. Each compound was diluted and tested in duplicate, providing four separate wells at each test concentration.
The test solutions of compound were incubated at room temperature for 90 minutes and then analyzed using a Thermoskan Ascent nephelometric plate reader. The nephelometer protocol included two steps: first, the plate was shaken for 60 seconds at 1200 rpm, then each well of the plate was read in succession with an 800 ms settling delay between measurements. The total measurement time for a single plate was less than 4 minutes.
The four values (in nephelometric units) obtained for each compound at each concentration were averaged and plotted on a log scale versus concentration.

[3] = Pharmacokinetic studies in mice (plasma, brain); type: in vivo; conditions: for Cmax: normalized to 25 mg/kg (nominal 25 mg/kg); for AUC(0-t) / AUC(0-inf): normalized to 25 mg/kg; for AUC(0-t): read-out: Exposure/trapezoid AUC0-18; for AUC(0-inf): read-out: Exposure/trapezoid AUC0-inf
Description: Male CD-1 mice weighing approximately 25 g received the test article (E19 or 82 or E14 or 69) by either intravenous (IV), oral gavage (OG) or intra-peritoneal (IP) routes. Animals in IV group (6-10 animals, 1-2 per time point) received a single bolus injection of approximately 2 mg/kg of the test article. Animals receiving […], or as 4 repeat doses ([…], 1-2 per time point).
All doses were administered as clear colorless solutions in either: 50% (v/v) PEG400:20% (v/v) ethanol:30% (v/v) carboxymethylcellulose (0.5% w/v in sterile water for injection, WFI), or as in situ sodium salts in 5% (m/v) dextrose:2% (v/v) ethanol in DWI. All dose solutions were delivered at 4 mL/kg. Animals were fasted for at least 4 hours before dosing, and for 2 hours after dosing.
Blood samples and brain tissue were sampled from 1 or 2 animals/timepoint/group immediately before dosing and approximately 0.17, 0.5, 1, 2, 3, 4, 6, 8, 12, 18 and 24 hr after dosing for full pharmacokinetic and tissue analysis, or at 0.5, 2 and 4 hours post dosing to assess early-phase CNS disposition.
Bioanalysis for test article in whole blood, plasma or brain tissue was performed by HPLC with tandem mass spectrometry (LC-MSMS). Whole blood and plasma samples were treated with 3 volumes of either acetonitrile or methanol to precipitate plasma proteins. Treated samples were centrifuged and supernatants removed for analysis. Brain tissues were weighed and homogenized mechanically in the presence of 1 volume of phosphate-buffered saline (PBS). The resulting tissue suspensions were then diluted with a further volume of PBS, and then treated in the same manner as whole blood or plasma.
Extracted samples were assayed for test article by means of LC-MSMS employing reversed-phase chromatography coupled to a triple quadrupole mass spectrometer employing electrospray ionization in the positive ion mode. The analytical column was a Phenomenex Luna 3μ C8 50×2 mm, with an online sample purification step performed on a Phenomenex Synergi 4μ Polar RP 50×2 mm column.
Test articles were eluted using a binary mobile phase gradient comprising 5 mM Ammonium Acetate: 0.1% formic acid in either MeOH or H2O.
Non-compartmental analysis of plasma test article concentration versus time was performed in Microsoft Excel to generate pharmacokinetic parameters including: area under the curve (AUC), clearance (as Cl or Cl/F), volume of distribution (Vdss), half-life (t½), and bioavailability (F).

[4] = Pharmacokinetic studies in rats (plasma, brain, CSF); type: in vivo; conditions: for half-life: read-out: t½ (converted); for Cmax / AUC(0-t) / AUC(0-inf): normalized to 25 mg/kg; for AUC(0-t): read-out: Exposure/trapezoid AUC0-18; for AUC(0-inf): read-out: Exposure/trapezoid AUC0-inf
Description: Male Sprague Dawley rats weighing approximately 200 g received test article (E19 or 82) as a single oral gavage (OG) dose of approximately 25 mg/kg (approximately 10 animals per group).
All doses were administered as clear colorless solutions as in situ sodium salts in 5% (m/v) dextrose:2% (v/v) ethanol in DWI. All dose solutions were delivered at 2 mL/kg. Animals were fasted for at least 4 hours before dosing, and for 2 hours after dosing.
Blood and CSF samples and brain tissue were sampled from 1 animal/timepoint/group immediately before dosing and approximately 0.5, 1, 2, 3, 4, 6, 8, 12, 18 and 24 hr after dosing for full pharmacokinetic (plasma and CSF) and tissue (Brain) analysis.

[5] = male, CD-1, mouse, brain, oral, mice
[6] = male, CD-1, mouse, plasma, oral, mice
[7] = male, Sprague Dawley, rat, CSF, oral, rats
[8] = male, Sprague Dawley, rat, brain, oral, rats
[9] = male, Sprague Dawley, rat, plasma, oral, rats

CC1(C)OB(O)c2cc(NC(=O)c3ccc(F)cc3C(F)(F)F)ccc21 [compound 82]
IC50 ([1]; read-out: T. b. brucei IC50 (nM)): 556 nM | IC50 ([1]; read-out: T.b. brucei IC50 (ug/mL)): 0.204 µg/mL | Solubility [2]: 25 µM (≈ 9.18 µg/mL) | CL/F ([3]; male, CD-1, mouse, 25 mg/kg, plasma, oral, mice, read-out: Oral Clearance Cl/F (converted)): 3.27 mL/min/kg | half-life ([3]; male, CD-1, mouse, 25 mg/kg, plasma, oral, mice, read-out: t½ (converted)): 6.9 h | Cmax [3, 5]: 7700 ng/mL | AUC(0-t) [3, 5]: 64.9 µg·h/mL | AUC(0-inf) [3, 5]: 65.5 µg·h/mL | Cmax [3, 6]: 9400 ng/mL | AUC(0-t) [3, 6]: 108 µg·h/mL | AUC(0-inf) [3, 6]: 128 µg·h/mL | brain concentrations relative to the MIC ([3]; mouse and rat, brain (and CSF)): maintains concentrations above the MIC for extended time periods | fold improved exposure in brain tissue over E19 ([3]; mouse, in vivo): 6-12 fold | Fold improvement 82 vs. E19: Oral Clearance Cl/F ([3]; mouse, in vivo, po): 1.2 fold | Fold improvement 82 vs. E19: t½ ([3]; mouse, in vivo, po): 0.4 fold | fold improved plasma exposure (based on AUC) over E19 ([3]; mouse, in vivo, po): 2-4 fold | Fold improvement 82 vs. E19: Cmax ([3]; mouse, in vivo, po, brain): 1.6 fold | Fold improvement 82 vs. E19: Cmax ([3]; mouse, in vivo, po, plasma): 1.2 fold | dose proportionality of brain exposure ([3]; oral delivery to mice): generally dose-proportional increases | dose proportionality of plasma exposure ([3]; oral delivery to mice): greater than proportional at doses above 20 mg/kg | F (% of IV) ([3]; plasma, oral, mice): 45% | plasma PK when administered to rodents ([3]; rodents, plasma): good exposure (AUC and Cmax), promising bioavailability, prolonged half-life, and low clearance | half-life ([4]; male, Sprague Dawley, rat, 25 mg/kg, CSF, oral, rats): 8.7 h | half-life ([4]; male, Sprague Dawley, rat, 25 mg/kg, brain, oral, rats): 9.5 h | CL/F ([4]; male, Sprague Dawley, rat, 25 mg/kg, plasma, oral, rats, read-out: Oral Clearance Cl/F (converted)): 1.53 mL/min/kg | half-life ([4]; male, Sprague Dawley, rat, 25 mg/kg, plasma, oral, rats): 15.5 h | Cmax [4, 7]: 1000 ng/mL | AUC(0-t) [4, 7]: 13.6 µg·h/mL | AUC(0-inf) [4, 7]: 16.8 µg·h/mL | Cmax [4, 8]: 7900 ng/mL | AUC(0-t) [4, 8]: 120 µg·h/mL | AUC(0-inf) [4, 8]: 152 µg·h/mL | Cmax [4, 9]: 17000 ng/mL | AUC(0-t) [4, 9]: 272 µg·h/mL | AUC(0-inf) [4, 9]: 433 µg·h/mL | time levels in brain and CSF are above the in vitro MIC ([4]; nominal single oral dose of 25 mg/kg to rats): approximately 12 hours | fold improved exposure in CSF over E19 ([4]; rat, in vivo): approximately 4 fold | Fold improvement 82 vs. E19: Oral Clearance Cl/F ([4]; rat, in vivo, po): 2.8 fold | Fold improvement 82 vs. E19: t½ ([4]; rat, in vivo, po, CSF): 2.8 fold | Fold improvement 82 vs. E19: t½ ([4]; rat, in vivo, po, brain): 3.7 fold | Fold improvement 82 vs. E19: t½ ([4]; rat, in vivo, po, plasma): 1.9 fold
